# From US7417062B2, “Substituted arylamides” (ChemoCentryx, Inc., priority 2004, dated 2008)
# Biological target: T1, CCXCKR2 receptor (Homo sapiens, UniProt P25106)
# T1 construct: host or cells: MCF-7 (endogenous) and/or MDA-MB-435S transfected with hRDC1 in pcDNA3.1(+)
# Test: Displacement of 125I-labeled SDF-1 from the CCXCKR2 receptor (radioligand binding, determination of IC50 values)
# Details: not given
# Procedure: The ability of the compounds to displace the labeled chemokine from the CCXCKR2 receptor sites at multiple concentrations was then determined with the screening process.
# Compounds that were deemed effective modulators were able to displace at least 50% of the SDF-1 from the CCXCKR2 receptor at concentrations at or below 10 micromolar (μM) and more preferably at concentrations at or below 2 micromolar. At present, especially preferred compounds can displace at least 50% of the SDF-1 from the CCXCKR2 receptor at concentrations at or below 500 nM. Exemplary compounds that met these criteria are reproduced in Table B below. All compounds were prepared as described in the Examples above, or by related methods substituting readily available starting materials.
# Reagents and Cells. ^125I-labeled SDF-1 was purchased from Perkin-Elmer Life Sciences, Inc. (Boston, Mass.). The MCF-7 (adenocarcinoma; mammary gland) cell line was obtained from the American Type Culture Collection (Manassas, Va.) or and was cultured in DMEM (Mediatech, Herndon, Va.) supplemented with 10% fetal bovine serum (FBS) (HyClone Logan, Utah) and bovine insulin (0.01 mg/mL) (Sigma, St. Louis, Mo.) at 37° C. in a humidified incubator at a 5% CO2/air mixture. CCXCKR2 transfected MDA-MB-435S were produced as described below. MDA-MB-435S human breast cancer line, was purchased from ATCC, and cultured in DMEM/10% FBS medium. The complete coding sequence of the gene encoding CCXCKR2 (a.k.a.CXCR7, hRDC1), was isolated from MCF-7 cells using μMACs mRNA isolation kit (Miltenyi Biotec, Auburn, Calif.). DNA contamination was removed by DNase digestion via RNeasy columns (Qiagen, Inc., Valencia, Calif.) and cDNA was generated using GeneAmp RNA PCR Core Kit (Applied Biosystems, Foster City, Calif.). PCR of cDNA samples was performed using Taq PCR Master Mix kit (Qiagen, Inc.) and hRDC1 primers harboring 5′ and 3′ Not I sites (hRDC1F 5′-[…]-3′ (SEQ ID NO:1), hRDC1R 5′-[…]-3′ (SEQ ID NO:2)) Not I digested PCR product was ligated into Not I digested pcDNA3.1(+)(Invitrogen, Carlsbad, Calif.) and screened for orientation and sequence confirmed. Plasmid DNA was then isolated from overnight bacterial cultures by Maxiprep (Qiagen, Inc.). Plasmid DNA (10 μg) was added to MDA-MB-435s cells and cells were electroporated (0.22 kV, 960 uF) via Gene Pulser (Biorad laboratories, Hercules, Calif.). 48 hr post-electroporation, cells were transferred to selection medium (1000 ug/ml G418).
# Binding Analysis. Target compounds were tested to determine their ability to bind with CCXCKR2 sites on MCF-7 and/or MDA-MB-435S cells. Efficiency-maximized radioligand binding using filtration protocols as described in Dairaghi D J, et al., HHV8-encoded vMIP-I selectively engages chemokine receptor CCR5. Agonist and antagonist profiles of viral chemokines., J. Biol. Chem. 1999 Jul. 30; 274(31): 21569-74 and Gosling J, et al., Cutting edge: identification of a novel chemokine receptor that binds dendritic cell-and T cell-active chemokines including ELC, SLC, and TECK., J. Immunol. 2000 Mar. 15; 164(6):2851-6 was used.
# In these assays, MCF-7 and/or MDA-MB-435S cells were interrogated with the target compounds and the ability of these compounds to displace ^125I radiolabeled SDF-1 was assessed using the protocol described in Dairaghi and Gosling. The target compounds were added to the plate to the indicated concentration and were then incubated with cells followed by the addition of radiolabeled chemokine (^125I SDF-1) for 3 hr at 4° C. in the following binding medium (25 mM HEPES, 140 mM NaCl, 1 mM CaCl2, 5 mM MgCl2 and 0.2% bovine serum albumin, adjusted to pH 7.1). All assays were then incubated for 3 hrs at 4° C. with gentle agitation. Following incubation in all binding assays, reactions were aspirated onto PEI-treated GF/B glass filters (Packard) using a cell harvester (Packard) and washed twice (25 mM HEPES, 500 mM NaCl, 1 mM CaCl2, 5 mM MgCl2, adjusted to pH 7.1). […]
# T1 sequence (P25106 whole entry): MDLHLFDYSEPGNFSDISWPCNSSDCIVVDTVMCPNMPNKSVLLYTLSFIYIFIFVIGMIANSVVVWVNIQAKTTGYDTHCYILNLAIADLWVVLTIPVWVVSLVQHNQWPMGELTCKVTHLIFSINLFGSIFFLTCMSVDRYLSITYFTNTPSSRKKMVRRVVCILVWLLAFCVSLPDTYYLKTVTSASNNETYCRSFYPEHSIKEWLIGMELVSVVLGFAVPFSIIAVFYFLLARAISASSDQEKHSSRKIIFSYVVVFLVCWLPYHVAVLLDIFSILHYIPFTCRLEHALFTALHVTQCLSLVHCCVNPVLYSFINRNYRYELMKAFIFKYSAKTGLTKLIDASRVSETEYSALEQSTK
row,Structure (SMILES),IC50 [nM]
1,COc1cc(C(=O)N(Cc2ccc3cccnc3n2)C[C@@H]2CCCN2C[C@H]2C[C@H]3CC[C@@H](C2)N3)cc2c1OC(C)(C)O2 [Example 41],< 500

# Same assay, conditions: MCF-7 and/or MDA-MB-435S cells expressing CCXCKR2; 125I SDF-1; 3 hr at 4° C.; read-out: Activity (ability to displace 125I SDF-1 from CCXCKR2)
row,IC50 [nM],Structure (SMILES)
1,< 2000,"COc1cc(C(=O)N(CCC2CCCN2C)Cc2csc3ccccc23)cc(OC)c1OC (stereo not shown) [Example 12, N-Benzo[b]thiophen-3-ylmethyl-3,4,5-trimethoxy-N-[2-(1-methyl-pyrrolidin-2-yl)-ethyl]-benzamide]"
2,< 500,COc1ccc(C(=O)N(Cc2ccc3ccccc3c2)C[C@@H]2CCCN2CC2CC=CCC2)cc1OC (stereo partly shown) [Example 1a]
3,< 500,"COc1cc(C(=O)N(CCC2CCCN2C)Cc2nc3ccccc3s2)cc(OC)c1OC (stereo not shown) [Example 13, N-Benzothiazol-2-ylmethyl-3,4,5-trimethoxy-N-[2-(1-methyl-pyrrolidin-2-yl)-ethyl]-benzamide]"
4,< 2000,COc1ccc(C(=O)N(C[C@@H]2CCCN2CC2CCCCC2)c2cccc(-c3csc(C)n3)c2)cc1OC
5,< 500,"COc1cc(C(=O)N(Cc2ccc3ccccc3n2)CC2CNC2)cc2c1OC(C)(C)O2 [Example 48, 7-Methoxy-2,2-dimethyl-benzo[1,3]dioxole-5-carboxylic acid azetidin-3-ylmethyl-quinolin-2-ylmethyl-amide]"
6,< 2000,"COc1cc(C(=O)N(Cc2cc3ccccc3nn2)C[C@@H]2CCCN2C2CCC2)cc2c1OC(C)(C)O2 [Example 74, 7-Methoxy-2,2-dimethyl-benzo[1,3]dioxole-5-carboxylic acid cinnolin-3-ylmethyl-((S)-1-cyclobutyl-pyrrolidin-2-ylmethyl)-amide]"
7,< 500,"COc1cc(C(=O)N(Cc2ccc3ccccc3n2)C[C@@H]2CCCN2CC2CNC2)cc2c1OC(C)(C)O2 [Example 44, 7-Methoxy-2,2-dimethyl-benzo[1,3]dioxole-5-carboxylic acid ((S)-1-azetidin-3-ylmethyl-pyrrolidin-2-ylmethyl)-quinolin-2-ylmethyl-amide]"
8,< 2000,"COc1ccc(C(=O)N(Cc2cc3ccccc3s2)C[C@@H]2CCCN2)cc1OC [Example 29, N-Benzo[b]thiophene-2-ylmethyl-3,4-dimethoxy-N—(S)-pyrrolidin-2-ylmethyl-benzamide]"
9,< 500,"COc1cc(C(=O)N(CCC2CCCN2C)Cc2cc3ccccc3o2)cc(OC)c1OC (stereo not shown) [Example 7, N-Benzofuran-2-ylmethyl-3,4,5-trimethoxy-N-[2-(1-methyl-pyrrolidin-2-yl)-ethyl]-benzamide]"
10,< 500,"COc1cc(C(=O)N(Cc2ccc3ccccc3n2)C[C@@H]2CCCN2C2CCC2)cc2c1OC(C)(C)O2 [Example 43, 7-Methoxy-2,2-dimethyl-benzo[1,3]dioxole-5-carboxylic acid ((S)-1-cyclobutyl-pyrrolidin-2-ylmethyl)-quinolin-2-ylmethyl-amide]"
11,< 500,"COc1ccc(C(=O)N(Cc2nc3ccccc3s2)C[C@@H]2CCCN2CC2CCCCC2)cc1OC [Example 27, N-Benzothiazol-2-yl methyl-(S)—N-(1-cyclohexylmethyl-pyrrolidin-2-ylmethyl)-3,4-dimethoxy-benzamide]"
12,< 500,"COc1cc(C(=O)N(Cc2csc(-c3ccccc3)n2)C[C@@H]2CCCN2C)cc2c1OC(C)(C)O2 [Example 56, 7-Methoxy-2,2-dimethyl-benzo[1,3]dioxole-5-carboxylic acid ((S)-1-methyl-pyrrolidin-2-ylmethyl)-(2-phenyl-thiazol-4-ylmethyl)-amide]"
13,< 500,"COc1ccc(C(=O)N(Cc2nc3ccccc3s2)C[C@@H]2CCCN2CCO)cc1OC [Example 26, N-Benzothiazol-2-yl methyl-(S)—N-[1-(2-hydroxy-ethyl)-pyrrolidin-2-ylmethyl]-3,4-dimethoxy-benzamide]"
14,< 10000,COc1cc(C(=O)N(Cc2nc(-c3ccccn3)sc2Cl)C[C@@H]2CCCN2C2CCC2)cc2c1OC(C)(C)O2
15,< 500,"COc1cc(C(=O)N(Cc2ccc3ccccc3n2)CC2CN(C)C2)cc2c1OC(C)(C)O2 [Example 49, 7-Methoxy-2,2-dimethyl-benzo[1,3]dioxole-5-carboxylic acid (1-methyl-azetidin-3-ylmethyl)-quinolin-2-ylmethyl-amide]"

# Further lines, the molecule ahead of its results:
row,Structure (SMILES),IC50 [nM]
1,COc1cc(C(=O)N(Cc2cnc3ccccc3c2)C[C@@H]2C[C@@H]3CCCC[C@@H]3N2)cc2c1OC(C)(C)O2,< 2000
2,"COc1ccc(C(=O)N(Cc2cc3ccccc3s2)C[C@@H]2CCCN2CC2CCCCC2)cc1OC [Example 30, N-Benzo[b]thiophen-2-yl methyl-(S)—N-(1-cyclohexylmethyl-pyrrolidin-2-ylmethyl)-3,4-dimethoxy-benzamide]",< 500
3,"COc1cc(C(=O)N(Cc2cc3ccccc3c[n+]2[O-])C[C@@H]2C[C@@H]3CCCC[C@@H]3N2)cc2c1OC(C)(C)O2 [Example 65, 7-Methoxy-2,2-dimethyl-benzo[1,3]dioxole-5-carboxylic acid [(2S,3aS,7aS)-1-(octahydro-indol-2-yl)methyl]-(2-oxy-isoquinolin-3-ylmethyl)-amide]",< 2000
4,"COc1cc(C(=O)N(Cc2cc3ccccc3o2)C[C@@H]2C[C@@H]3CCCC[C@@H]3N2)cc2c1OC(C)(C)O2 [Example 57, 7-Methoxy-2,2-dimethyl-benzo[1,3]dioxole-5-carboxylic acid benzofuran-2-ylmethyl-[(2S,3aS,7aS)-1-(octahydro-indol-2-yl)methyl]-amide]",< 500
5,COc1ccc(C(=O)N(C[C@@H]2CCCN2CC2CCCCC2)c2ccc(-c3ccccc3)cc2)cc1OC,< 10000
6,"COc1cc(C(=O)N(Cc2cc3ccccc3cn2)C[C@@H]2C[C@@H]3CCCC[C@@H]3N2)cc2c1OC(C)(C)O2 [Example 64, 7-Methoxy-2,2-dimethyl-benzo[1,3]dioxole-5-carboxylic acid isoquinolin-3-ylmethyl-[(2S,3aS,7aS)-1-(octahydro-indol-2-yl)methyl]-amide]",< 500
7,"COc1cc(C(=O)N(Cc2ccc3ccccc3n2)C[C@@H]2C[C@@H]3CCCC[C@@H]3N2)cc2c1OC(C)(C)O2 [Example 70, 7-Methoxy-2,2-dimethyl-benzo[1,3]dioxole-5-carboxylic acid [(2S,3aS,7aS)-1-(octahydro-indol-2-yl)methyl]-quinolin-2-ylmethyl-amide]",< 500
8,"COc1cc(C(=O)N(C[C@@H]2C[C@@H]3CCCC[C@@H]3N2)C(C)c2ccc3ccccc3n2)cc2c1OC(C)(C)O2 (stereo partly drawn) [Example 71, 7-Methoxy-2,2-dimethyl-benzo[1,3]dioxole-5-carboxylic acid [(2S,3aS,7aS)-1-(octahydro-indol-2-yl)methyl]-(1-quinolin-2-yl-ethyl)-amide]",< 500
9,"COc1cc(C(=O)N(Cc2nc(-c3ccccc3)sc2Cl)C[C@@H]2C[C@@H]3CCCC[C@@H]3N2)cc2c1OC(C)(C)O2 [Example 79, 7-Methoxy-2,2-dimethyl-benzo[1,3]dioxole-5-carboxylic acid (5-chloro-2-phenyl-thiazol-4-ylmethyl)-[(2S,3aS,7 aS)-1-(octahydro-indol-2-yl)methyl]-amide]",< 500
